Measurements as given in patent US20070155661A1, “Methods and compositions for modulating the development of stem cells” (THE BOARD of TRUSTEES of the LELAND STANDORD JUNIOR …, priority 2003, published 2007).

Test system: mouse ES cell-derived IPCCs
Assay: Insulin production by mouse ES cell-derived insulin-producing cell clusters (IPCCs)
Format: cell-based
Protocol: In duplicate experiments, we detect approximately 6000 ng insulin/mg protein produced by mouse embryoid bodies treated with a sequence of growth factors including GDF8.

For “GDF8: BMP/TGF-beta family growth factor, ~80% identical to GDF11 in the mature region”, the “effect on insulin production” value (mouse ES cell-derived IPCCs) was “promotes insulin production” and the “insulin produced by mouse embryoid bodies” value (mouse embryoid bodies treated with a sequence of growth factors including GDF8, duplicate experiments) was “approximately 6000 ng insulin/mg protein”.
